Measured values from article PMC8617031, “Development of a BCL-xL and BCL-2 dual degrader with improved anti-leukemic activity,” (Nature Communications, 2021).
Values joined by “and” are separate entries in the source; they are usually repeats but may differ in a detail not shown here. Identical values can stand only once.

Legend:
[1] = tested on: BCL-xL/PROTAC/VCB ternary complex (HiBit-BCL-xL, HaloTag-VHL); assay: NanoBRET intracellular ternary complex formation in 293T cells, BCL-xL; format: cell-based, human; settings: for NanoBRET ratio (610/450 x1000, background-subtracted), Bcl-xl, Ave / NanoBRET signal (610/450 ratio, background-subtracted), Ave, Bcl-xl: Ave of Read1 and Read2; for NanoBRET ratio (610/450 x1000, background-subtracted), Bcl-xl, Ave / NanoBRET ratio (610/450 x1000, background-subtracted), Bcl-xl, Read1 / NanoBRET ratio (610/450 x1000, background-subtracted), Bcl-xl, Read2: 293T cells, triplicate wells; for NanoBRET signal (610/450 ratio, background-subtracted), Ave, Bcl-xl: per replicate well; for NanoBRET signal (610/450 ratio, background-subtracted), Read1, Bcl-xl / NanoBRET signal (610/450 ratio, background-subtracted), Read2, Bcl-xl: individual replicate wells
Description: (§1) Plasmids HaloTag-VHL (Cat. No. CS1679C155) and CMV HiBit (Cat. No. CS1956B03) were purchased from Promega. HiBit-BCL-xL and HiBit-BCL-2 were constructed previously. The two mutants (HiBit-BCL-xL-K157-only and HiBit-BCL-xL-K-ko) were constructed through Gibson assembly method. The primer pair (5′-[…]-3′ and 5′-[…]c[…]-3′) and the template Flag-BCL-xL-K157-only or Flag-BCL-xL-K-ko (pDL2129)[2] were used to clone the BCL-xL-K157-only-containing and BCL-xL-K-ko-containing fragments, respectively. The primer pair (5′-[…]g[…]-3′ and 5′-[…]-3′) and pBit3.1-N (Cat. No. N2361, Promega) were used to clone the vector-containing fragment. The PCR fragments were assembled using NEBuilder® HiFi DNA Assembly Master Mix (Cat. No. E2621, NEB, Ipswich, MA, USA). DNA sequences in all these plasmids were authenticated by automatic sequencing. […] After 24 h, 2 × 10^4 transfected cells were seeded into white 96-well tissue culture plates in Gibco™ Opti-MEM™ I Reduced Serum Medium, No Phenol Red (Cat. No. 11-058-021, Fisher) containing 4% FBS with or without HaloTag NanoBRET 618 Ligand (Cat. No. PRN1662, Promega) and incubated overnight at 37 °C, 5% CO2. The following day, serial diluted compounds were added into the medium and plates were incubated at 37 °C, 5% CO2, for 6 h. After treatment, NanoBRET Nano-Glo Substrate (cat. no. N1662, Promega) was added into the medium, and the contents were mixed by shaking the plate for 30 s before measuring donor and acceptor signals on Biotek plate reader. Dual-filtered luminescence was collected with a 450/50 nm bandpass filter (donor, NanoBiT-BCL-XL protein or NanoBiT-BCL-2 protein) and a 610-nm longpass filter (acceptor, HaloTag NanoBRET ligand) using an integration time of 0.5 s. mBRET ratios were calculated following the NanoBRET™ Nano-Glo® Detection System (Cat. No. N1662, Promega).

[2] = tested on: BCL-2/PROTAC/VCB ternary complex (HiBit-BCL-2, HaloTag-VHL); assay: NanoBRET intracellular ternary complex formation in 293T cells, BCL-2; format: cell-based, human; settings: for NanoBRET ratio (610/450 x1000, background-subtracted), Bcl-2, Ave / NanoBRET signal (610/450 ratio, background-subtracted), Ave, Bcl-2: Ave of Read1 and Read2; for NanoBRET ratio (610/450 x1000, background-subtracted), Bcl-2, Ave / NanoBRET ratio (610/450 x1000, background-subtracted), Bcl-2, Read1 / NanoBRET ratio (610/450 x1000, background-subtracted), Bcl-2, Read2: 293T cells, triplicate wells; for NanoBRET signal (610/450 ratio, background-subtracted), Ave, Bcl-2: per replicate well; for NanoBRET signal (610/450 ratio, background-subtracted), Read1, Bcl-2 / NanoBRET signal (610/450 ratio, background-subtracted), Read2, Bcl-2: individual replicate wells
Description: as §1

Compound	NanoBRET ratio (610/450 x1000, background-subtracted), Bcl-xl, Ave ([1]; 0.333 uM)	NanoBRET ratio (610/450 x1000, background-subtracted), Bcl-xl, Read1 ([1]; 0.333 uM)	NanoBRET ratio (610/450 x1000, background-subtracted), Bcl-xl, Read2 ([1]; 0.333 uM)	NanoBRET ratio (610/450 x1000, background-subtracted), Bcl-xl, Ave ([1]; 1 uM)	NanoBRET ratio (610/450 x1000, background-subtracted), Bcl-xl, Read1 ([1]; 1 uM)	NanoBRET ratio (610/450 x1000, background-subtracted), Bcl-xl, Read2 ([1]; 1 uM)	NanoBRET ratio (610/450 x1000, background-subtracted), Bcl-xl, Ave ([1]; 3 uM)	NanoBRET ratio (610/450 x1000, background-subtracted), Bcl-xl, Read1 ([1]; 3 uM)	NanoBRET ratio (610/450 x1000, background-subtracted), Bcl-xl, Read2 ([1]; 3 uM)	NanoBRET ratio (610/450 x1000, background-subtracted), Bcl-2, Ave ([2]; 0.333 uM)	NanoBRET ratio (610/450 x1000, background-subtracted), Bcl-2, Read1 ([2]; 0.333 uM)	NanoBRET ratio (610/450 x1000, background-subtracted), Bcl-2, Read2 ([2]; 0.333 uM)	NanoBRET ratio (610/450 x1000, background-subtracted), Bcl-2, Ave ([2]; 1 uM)	NanoBRET ratio (610/450 x1000, background-subtracted), Bcl-2, Read1 ([2]; 1 uM)	NanoBRET ratio (610/450 x1000, background-subtracted), Bcl-2, Read2 ([2]; 1 uM)	NanoBRET ratio (610/450 x1000, background-subtracted), Bcl-2, Ave ([2]; 3 uM)	NanoBRET ratio (610/450 x1000, background-subtracted), Bcl-2, Read1 ([2]; 3 uM)	NanoBRET ratio (610/450 x1000, background-subtracted), Bcl-2, Read2 ([2]; 3 uM)	also measured
Cc1ncsc1-c1ccc(C(C)NC(=O)C2CC(O)CN2C(=O)C(NC(=O)CCCC(=O)N2CCN(CC3(C)CCC(c4ccc(Cl)cc4)=C(CN4CCN(c5ccc(C(=O)NS(=O)(=O)c6ccc(NC(CCN7CCOCC7)CSc7ccccc7)c(S(=O)(=O)C(F)(F)F)c6)cc5)CC4)C3)CC2)C(C)(C)C)cc1 (mixture of isomers) [319-C5]	6.339 and 5.781 and 6.072	6.257 and 5.719 and 6.3849	6.422 and 5.844 and 5.759	5.241 and 6.025 and 7.398	5.522 and 5.988 and 7.452	4.96 and 6.062 and 7.344	5.367 and 5.631 and 6.141	5.5804 and 5.686 and 6.375	5.154 and 5.575 and 5.907	5.628 and 6.032 and 6.002	5.8735 and 6.598 and 5.9581	5.383 and 5.466 and 6.046	7.014 and 6.158 and 6.868	6.748 and 6.437 and 7.054	7.2789 and 5.879 and 6.683	6.77 and 7.133 and 6.868	6.63 and 7.268 and 6.8218	6.909 and 6.997 and 6.914	–
Cc1ncsc1-c1ccc(C(C)NC(=O)C2CC(O)CN2C(=O)C(NC(=O)CCCCC(=O)N2CCN(CC3(C)CCC(c4ccc(Cl)cc4)=C(CN4CCN(c5ccc(C(=O)NS(=O)(=O)c6ccc(NC(CCN7CCOCC7)CSc7ccccc7)c(S(=O)(=O)C(F)(F)F)c6)cc5)CC4)C3)CC2)C(C)(C)C)cc1 (mixture of isomers) [319-C6]	6.174 and 6.1699 and 6.65	6.062 and 6.008 and 6.406	6.287 and 6.332 and 6.893	8.477 and 7.0143 and 7.515	8.852 and 7.285 and 8.097	8.103 and 6.744 and 6.934	8.009 and 9.063 and 8.852	8.381 and 8.755 and 9.483	7.637 and 9.371 and 8.221	6.191 and 6.524 and 6.882	6.596 and 6.719 and 7.227	5.786 and 6.329 and 6.537	6.728 and 7.064 and 7.162	6.811 and 7.607 and 7.576	6.646 and 6.52 and 6.748	8.027 and 7.6 and 7.992	8.178 and 7.5868 and 7.751	7.877 and 7.613 and 8.232	–
Cc1ncsc1-c1ccc(C(C)NC(=O)C2CC(O)CN2C(=O)C(NC(=O)CCCCCC(=O)N2CCN(CC3(C)CCC(c4ccc(Cl)cc4)=C(CN4CCN(c5ccc(C(=O)NS(=O)(=O)c6ccc(NC(CCN7CCOCC7)CSc7ccccc7)c(S(=O)(=O)C(F)(F)F)c6)cc5)CC4)C3)CC2)C(C)(C)C)cc1 (mixture of isomers) [319-C7]	6.383 and 6.41 and 6.027	6.118 and 6.864 and 6.2545	6.648 and 5.956 and 5.8	8.353 and 6.411 and 6.637	7.957 and 6.709 and 6.774	8.749 and 6.113 and 6.499	5.568 and 7.612 and 6.364	5.755 and 8.211 and 6.36	5.382 and 7.013 and 6.368	6.052 and 6.92 and 7.6505	5.966 and 6.845 and 7.7752	6.137 and 6.996 and 7.5258	8.414 and 7.671 and 8.038	8.989 and 7.62 and 8.138	7.839 and 7.721 and 7.939	7.385 and 7.884 and 8.749	7.497 and 8.645 and 8.883	7.2733 and 7.122 and 8.615	–
Cc1ncsc1-c1ccc(C(C)NC(=O)C2CC(O)CN2C(=O)C(NC(=O)CCCCCCC(=O)N2CCN(CC3(C)CCC(c4ccc(Cl)cc4)=C(CN4CCN(c5ccc(C(=O)NS(=O)(=O)c6ccc(NC(CCN7CCOCC7)CSc7ccccc7)c(S(=O)(=O)C(F)(F)F)c6)cc5)CC4)C3)CC2)C(C)(C)C)cc1 (mixture of isomers) [319-C8]	–	–	–	–	–	–	–	–	–	–	–	–	–	–	–	–	–	–	NanoBRET signal (610/450 ratio, background-subtracted), Ave, Bcl-xl ([1]; 0.333 uM): 7.726 and 6.163 and 6.736; NanoBRET signal (610/450 ratio, background-subtracted), Read1, Bcl-xl ([1]; 0.333 uM): 7.612 and 5.878 and 6.37; NanoBRET signal (610/450 ratio, background-subtracted), Read2, Bcl-xl ([1]; 0.333 uM): 7.841 and 6.448 and 7.103; NanoBRET signal (610/450 ratio, background-subtracted), Ave, Bcl-xl ([1]; 1 uM): 7.132 and 7.494 and 7.451; NanoBRET signal (610/450 ratio, background-subtracted), Read1, Bcl-xl ([1]; 1 uM): 7.4 and 7.483 and 8.183; NanoBRET signal (610/450 ratio, background-subtracted), Read2, Bcl-xl ([1]; 1 uM): 6.864 and 7.506 and 6.7195; NanoBRET signal (610/450 ratio, background-subtracted), Ave, Bcl-xl ([1]; 3 uM): 8.664 and 8.41 and 8.787; NanoBRET signal (610/450 ratio, background-subtracted), Read1, Bcl-xl ([1]; 3 uM): 9.315 and 7.583 and 8.729; NanoBRET signal (610/450 ratio, background-subtracted), Read2, Bcl-xl ([1]; 3 uM): 8.012 and 9.238 and 8.844; NanoBRET signal (610/450 ratio, background-subtracted), Ave, Bcl-2 ([2]; 0.333 uM): 6.709 and 6.763 and 6.945; NanoBRET signal (610/450 ratio, background-subtracted), Read1, Bcl-2 ([2]; 0.333 uM): 6.876 and 6.829 and 6.839; NanoBRET signal (610/450 ratio, background-subtracted), Read2, Bcl-2 ([2]; 0.333 uM): 6.543 and 6.698 and 7.051; NanoBRET signal (610/450 ratio, background-subtracted), Ave, Bcl-2 ([2]; 1 uM): 8.276 and 7.6621 and 8.376; NanoBRET signal (610/450 ratio, background-subtracted), Read1, Bcl-2 ([2]; 1 uM): 8.792 and 8.054 and 8.836; NanoBRET signal (610/450 ratio, background-subtracted), Read2, Bcl-2 ([2]; 1 uM): 7.759 and 7.2706 and 7.917; NanoBRET signal (610/450 ratio, background-subtracted), Ave, Bcl-2 ([2]; 3 uM): 8.696 and 8.738 and 7.9326; NanoBRET signal (610/450 ratio, background-subtracted), Read1, Bcl-2 ([2]; 3 uM): 8.912 and 9.6864 and 8.129; NanoBRET signal (610/450 ratio, background-subtracted), Read2, Bcl-2 ([2]; 3 uM): 8.48 and 7.79 and 7.737
